The record followed here is patent publication US8642587B2, “Heterocyclic compounds, pharmaceutical compositions containing them, and their use in therapy” (AbbVie Deutschland GmbH & Co. KG, priority 2009, dated 2014).

Structures can show the parent of a compound that is named as a salt.

The target of the experiment is T1, human GlyT1c transporter (Homo sapiens, UniProt P48067).
T1 construct: expressed in transfected cells; host or cells: CHO cells (recombinant; membranes)
T1 sequence (P48067 1-706): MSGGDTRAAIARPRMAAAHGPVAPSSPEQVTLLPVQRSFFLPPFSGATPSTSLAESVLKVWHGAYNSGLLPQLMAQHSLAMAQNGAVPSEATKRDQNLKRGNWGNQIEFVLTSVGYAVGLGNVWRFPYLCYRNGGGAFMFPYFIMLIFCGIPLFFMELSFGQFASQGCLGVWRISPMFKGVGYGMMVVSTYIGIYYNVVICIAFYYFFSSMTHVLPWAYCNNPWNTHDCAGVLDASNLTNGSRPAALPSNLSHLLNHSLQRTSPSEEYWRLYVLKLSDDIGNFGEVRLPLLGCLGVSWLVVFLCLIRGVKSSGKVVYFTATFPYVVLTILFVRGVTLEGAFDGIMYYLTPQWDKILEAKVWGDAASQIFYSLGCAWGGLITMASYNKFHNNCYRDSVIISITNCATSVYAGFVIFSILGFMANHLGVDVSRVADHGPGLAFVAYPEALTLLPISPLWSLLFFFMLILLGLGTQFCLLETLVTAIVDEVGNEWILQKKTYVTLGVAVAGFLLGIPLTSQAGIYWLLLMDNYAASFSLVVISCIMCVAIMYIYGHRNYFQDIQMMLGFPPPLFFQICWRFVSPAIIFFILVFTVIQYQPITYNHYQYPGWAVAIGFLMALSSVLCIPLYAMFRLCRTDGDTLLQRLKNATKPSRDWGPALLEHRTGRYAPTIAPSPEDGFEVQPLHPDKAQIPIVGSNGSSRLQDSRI
The experiment is described as follows: Radioligand binding assay using recombinant CHO cell membranes expressing human GlyT1. Conditions: values given as bounds, read-out: radioligand binding K^iapp. The protocol:
Radioligand binding to human GlyT1c transporter-expressing membranes was carried out as described in Mezler et al., Molecular Pharmacology 74:1705-1715, 2008.
With `CS(=O)(=O)NCCn1cc2c(n1)C(C1(c3ccc(Cl)cc3)CCC1)NCC2` (stereo not drawn) [Example 9.3, N-(2-(7-(1-(4-Chlorophenyl)cyclobutyl)-4,5,6,7-tetrahydro-2H-pyrazolo[3,4-c]pyridin-2-yl)ethyl)methanesulfonamide hydrochloride], the Ki is at most 1000 nM.
As to `O=S(=O)(CCCF)NCc1ncc2c(n1)C(C1(c3ccc(Cl)cc3)CCC1)NCC2` (stereo not drawn) [Example 8.5, N-((8-(1-(4-Chlorophenyl)cyclobutyl)-5,6,7,8-tetrahydropyrido[3,4-d]pyrimidin-2-yl)methyl)-3-fluoropropane-1-sulfonamide hydrochloride], the Ki is at most 1000 nM.
Consider `CCCS(=O)(=O)N(C)CCn1cc2c(n1)C(C1(c3ccc(Cl)cc3)CCC1)NCC2` (stereo not drawn) [Example 10, N-(2-(7-(1-(4-chlorophenyl)cyclobutyl)-4,5,6,7-tetrahydro-2H-pyrazolo[3,4-c]pyridin-2-yl)ethyl)-N-methylpropane-1-sulfonamide hydrochloride], for which the Ki was at most 1000 nM.
The same measure for `O=S(=O)(CCCF)NCCn1cc2c(n1)C(C1(c3ccc(Cl)cc3)CCC1)NCC2` (stereo not drawn) [Example 9.8, N-(2-(7-(1-(4-Chlorophenyl)cyclobutyl)-4,5,6,7-tetrahydro-2H-pyrazolo[3,4-c]pyridin-2-yl)ethyl)-3-fluoropropane-1-sulfonamide hydrochloride]: at most 1000 nM.
As for `CCCS(=O)(=O)NCCn1ncc2c1C(C1(c3ccc(Cl)cc3)CCC1)NCC2` (stereo not drawn) [Example 7.1, N-(2-(7-(1-(4-Chlorophenyl)cyclobutyl)-4,5,6,7-tetrahydro-1H-pyrazolo[3,4-c]pyridin-1-yl)ethyl)propane-1-sulfonamide hydrochloride], the Ki was at most 1000 nM.
Turning to `CCCCS(=O)(=O)NCCn1cc2c(n1)C(C1(c3ccc(Cl)cc3)CCC1)NCC2` (stereo not drawn) [Example 9.5, N-(2-(7-(1-(4-Chlorophenyl)cyclobutyl)-4,5,6,7-tetrahydro-2H-pyrazolo[3,4-c]pyridin-2-yl)-ethyl)butane-1-sulfonamide hydrochloride], the Ki is at most 1000 nM.
Regarding `CCCS(=O)(=O)NCCn1cc2c(n1)C(C1(c3ccc(Cl)cc3)CCC1)NCC2` (stereo not drawn) [Example 9.1, N-(2-(7-(1-(4-Chlorophenyl)cyclobutyl)-4,5,6,7-tetrahydro-2H-pyrazolo[3,4-c]pyridin-2-yl)ethyl)propane-1-sulfonamide hydrochloride], the Ki was at most 1000 nM.
The figure for `NCCn1cc2c(n1)C(C1(c3ccc(Cl)cc3)CCC1)NCC2` (stereo not drawn) [Example 6, 2-(7-(1-(4-Chlorophenyl)cyclobutyl)-4,5,6,7-tetrahydro-2H-pyrazolo[3,4-c]pyridin-2-yl)ethanamine dihydrochloride] is at least 10000 nM; for `O=S(=O)(NCCn1cc2c(n1)C(C1(c3ccc(Cl)cc3)CCC1)NCC2)C1CCC1` (stereo not drawn) [Example 9.9, N-(2-(7-(1-(4-Chlorophenyl)cyclobutyl)-4,5,6,7-tetrahydro-2H-pyrazolo[3,4-c]pyridin-2-yl)-ethyl)cyclobutanesulfonamide hydrochloride] it is at most 1000 nM; for `Cn1cnc(S(=O)(=O)NCCn2ncc3c2C(C2(c4ccc(Cl)cc4)CCC2)NCC3)c1` (stereo not drawn) [Example 7.4, N-(2-(7-(1-(4-Chlorophenyl)cyclobutyl)-4,5,6,7-tetrahydro-1H-pyrazolo[3,4-c]pyridin-1-yl)ethyl)-1-methyl-1H-imidazole-4-sulfonamide hydrochloride] it is at most 1000 nM.
The figure for `CCCS(=O)(=O)NCc1ncc2c(n1)C(C1(c3ccc(Cl)cc3)CCC1)NCC2` (stereo not drawn) [Example 8.1, N-((8-(1-(4-Chlorophenyl)cyclobutyl)-5,6,7,8-tetrahydropyrido[3,4-d]pyrimidin-2-yl)methyl)propane-1-sulfonamide hydrochloride] is at most 1000 nM; for `O=S(=O)(CCCF)NCCn1ncc2c1C(C1(c3ccc(Cl)cc3)CCC1)NCC2` (stereo not drawn) [Example 7.3, N-(2-(7-(1-(4-Chlorophenyl)cyclobutyl)-4,5,6,7-tetrahydro-1H-pyrazolo[3,4-c]pyridin-1-yl)ethyl)-3-fluoropropane-1-sulfonamide hydrochloride] it is at most 1000 nM.
With `CCCS(=O)(=O)NCCn1c2c(c3ccccc31)CCNC2C1(c2ccc(Cl)cc2)CCC1` (stereo not drawn) [Example 11, N-(2-{1-[1-(4-Chlorophenyl)cyclobutyl]-1,2,3,4-tetrahydro-9H-b-carbolin-9-yl}ethyl)propane-1-sulfonamide], the Ki was at most 1000 nM.
Turning to `O=S(=O)(CC1CC1)NCCn1cc2c(n1)C(C1(c3ccc(Cl)cc3)CCC1)NCC2` (stereo not drawn) [Example 9.10, N-(2-(7-(1-(4-Chlorophenyl)cyclobutyl)-4,5,6,7-tetrahydro-2H-pyrazolo[3,4-c]pyridin-2-yl)-ethyl)-1-cyclopropylmethanesulfonamide hydrochloride], the Ki is at most 1000 nM.
For `O=S(=O)(CC1CC1)NCc1ncc2c(n1)C(C1(c3ccc(Cl)cc3)CCC1)NCC2` (stereo not drawn) [Example 8.2, N-((8-(1-(4-Chlorophenyl)cyclobutyl)-5,6,7,8-tetrahydropyrido[3,4-d]pyrimidin-2-yl)methyl)-1-cyclopropylmethanesulfonamide hydrochloride], the Ki is at most 1000 nM.
The figure for `Cn1cnc(S(=O)(=O)NCc2ncc3c(n2)C(C2(c4ccc(Cl)cc4)CCC2)NCC3)c1` (stereo not drawn) [Example 8.4, N-((8-(1-(4-Chlorophenyl)cyclobutyl)-5,6,7,8-tetrahydropyrido[3,4-d]pyrimidin-2-yl)methyl)-1-methyl-1H-imidazole-4-sulfonamide hydrochloride] is at most 1000 nM.
With `Cn1cc(S(=O)(=O)NCc2ncc3c(n2)C(C2(c4ccc(Cl)cc4)CCC2)NCC3)cn1` (stereo not drawn) [Example 8.3, N-((8-(1-(4-Chlorophenyl)cyclobutyl)-5,6,7,8-tetrahydropyrido[3,4-d]pyrimidin-2-yl)methyl)-1-methyl-1H-pyrazole-4-sulfonamide hydrochloride], the Ki was at most 1000 nM.
The same measure for `Cn1cnc(S(=O)(=O)NCCn2cc3c(n2)C(C2(c4ccc(Cl)cc4)CCC2)NCC3)c1` (stereo not drawn) [Example 9.7, N-(2-(7-(1-(4-Chlorophenyl)cyclobutyl)-4,5,6,7-tetrahydro-2H-pyrazolo[3,4-c]pyridin-2-yl)ethyl)-1-methyl-1H-imidazole-4-sulfonamide hydrochloride]: at most 1000 nM; for `Cn1cc(S(=O)(=O)NCCn2cc3c(n2)C(C2(c4ccc(Cl)cc4)CCC2)NCC3)cn1` (stereo not drawn) [Example 9.6, N-(2-(7-(1-(4-Chlorophenyl)cyclobutyl)-4,5,6,7-tetrahydro-2H-pyrazolo[3,4-c]pyridin-2-yl)-ethyl)-1-methyl-1H-pyrazole-4-sulfonamide hydrochloride]: at most 1000 nM.
With `Cn1cc(S(=O)(=O)NCCn2ncc3c2C(C2(c4ccc(Cl)cc4)CCC2)NCC3)cn1` (stereo not drawn) [Example 7.2, N-(2-(7-(1-(4-Chlorophenyl)cyclobutyl)-4,5,6,7-tetrahydro-1H-pyrazolo[3,4-c]pyridin-1-yl)ethyl)-1-methyl-1H-pyrazole-4-sulfonamide hydrochloride], the Ki is at most 10000 nM.
For the compound `O=S(=O)(NCCn1cc2c(n1)C(C1(c3ccc(Cl)cc3)CCC1)NCC2)c1cccnc1` (stereo not drawn) [Example 9.12, N-(2-(7-(1-(4-Chlorophenyl)cyclobutyl)-4,5,6,7-tetrahydro-2H-pyrazolo[3,4-c]pyridin-2-yl)ethyl)pyridine-3-sulfonamide dihydrochloride], the Ki was at most 1000 nM.
For the compound `CCS(=O)(=O)NCCn1cc2c(n1)C(C1(c3ccc(Cl)cc3)CCC1)NCC2` (stereo not drawn) [Example 9.2, N-(2-(7-(1-(4-Chlorophenyl)cyclobutyl)-4,5,6,7-tetrahydro-2H-pyrazolo[3,4-c]pyridin-2-yl)ethyl)ethanesulfonamide hydrochloride], the Ki was at most 10000 nM.
On to `CC(C)CS(=O)(=O)NCCn1cc2c(n1)C(C1(c3ccc(Cl)cc3)CCC1)NCC2` (stereo not drawn) [Example 9.11, N-(2-(7-(1-(4-chlorophenyl)cyclobutyl)-4,5,6,7-tetrahydro-2H-pyrazolo[3,4-c]pyridin-2-yl)ethyl)-2-methylpropane-1-sulfonamide hydrochloride], for which the Ki was at most 1000 nM.
`O=S(=O)(NCCn1cc2c(n1)C(C1(c3ccc(Cl)cc3)CCC1)NCC2)c1ccccc1` (stereo not drawn) [Example 9.4, N-(2-(7-(1-(4-Chlorophenyl)cyclobutyl)-4,5,6,7-tetrahydro-2H-pyrazolo[3,4-c]pyridin-2-yl)ethyl)benzenesulfonamide hydrochloride]: the Ki is at most 1000 nM.
